Series [1] concerns HT-29 cells. The series is described as follows: Annexin V-PI flow cytometric analysis of apoptosis, HT-29. Format: cell-based, human. The conditions noted are these: 96 h. The procedure: (§1) The quantification of apoptosis induced by the test compounds was carried out with flow cytometric analysis using the Annexin-V Fluos kit (Roche Diagnostics, Milan, Italy) following the manufacturer’s instructions. Cancer cells treated with the test compounds for the indicated time points and concentrations were then labeled with annexin V/FITC and PI and analyzed with BD FACS Celesta^TM Flow Cytometer (BD Bioscience, Franklin Lakes, NJ, USA) using the FL1 and FL3 channel, respectively, and FlowJo_v10.7.1 software.
On the technique in general: A flow cytometer gives signals particle by particle.

Series [2] has as its system HeLa cells. The series is described as follows: In vitro growth inhibition (resazurin, 72 h), HeLa. Format: cell-based. The conditions noted are these: Homo sapiens, concentration inhibiting tumor cell proliferation by 50%, mean ± SE. In general terms: Alamar Blue is a resazurin reagent that responds to reducing activity.
In series [3] the test system is HT-29 cells. The series can be described thus: Cell cycle analysis (PI, flow cytometry). As to conditions: 250 nM for 24 h (figure legend). Format: cell-based, human. Here is the method: HT29 cells were treated with the indicated compounds for 24 h and then harvested and fixed in 70% ice-cold ethanol for 24 h. The cells were next treated with a 0.1% v/v solution of Triton X-100 in phosphate buffered saline (PBS) containing 10 μg/mL RNAse A and 20 μg/mL PI. The cells were incubated at room temperature for 30 min and then analyzed on a BD FACS Celesta^TM Flow Cytometer (BD Bioscience, Franklin Lakes, NJ, USA) in the FL3 channel. DNA histograms were analyzed using FlowJo_v10.7.1 software (BD Bioscience, Franklin Lakes, NJ, USA).

In series [4] the test system is HeLa cells. The series is described as follows: Annexin V-PI flow cytometric analysis of apoptosis, HeLa. The conditions noted are these: 48 h, lower dose tested 25 nM. Format: cell-based, human. The procedure:
as §1

Series [5] concerns tubulin (colchicine site). The series can be described thus: Inhibition of [3H]colchicine binding to tubulin. The arrangement: species or system bovine. As to conditions: tubulin 0.5 µM, [3H]colchicine 5 µM, tested compound 5 µM. Put shortly:
(§2)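 Assembly: 10 μM bovine brain tubulin preincubated with compound in 0.8 M monosodium glutamate pH 6.6 at 30 °C, chilled, GTP added, then warmed to 30 °C and followed turbidimetrically. Colchicine binding: 0.5 μM tubulin with 5 μM [3H]colchicine and 5 μM compound, DEAE-cellulose filter by gravity.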

The next series relates to MDA-MB-231 cells. The series is described as follows: In vitro growth inhibition (resazurin, 72 h), MDA-MB-231. Format: cell-based. As to conditions: Homo sapiens, mean ± SE.
The next series deals with bovine brain tubulin. The series can be described thus: Inhibition of tubulin polymerization (turbidimetric). Format: biochemical. As to conditions: tubulin at 10 μM; 20 min incubation at 30 °C; read-out: Tubulin Assembly IC50 ± SD. The essentials:
as §2

Another series has as its system A549 cells. The series is described as follows: In vitro growth inhibition (resazurin, 72 h), A549. Format: cell-based. As to conditions: Homo sapiens, mean ± SE.
For series [6], the system named is human peripheral blood mononuclear cells (PBMC) stimulated with PHA. The series is described as follows: Cytotoxicity in PHA-stimulated PBMC (resazurin, 72 h). The conditions noted are these: mean ± SEM. It is filed as cell-based. The source says: (§3) Peripheral blood mononuclear cells (PBMC), obtained from human peripheral blood (leucocyte-rich plasma-buffy coats) of healthy volunteers using a Lymphoprep^TM (Serumwerk Bernburg AG) gradient, were used for the evaluation of the cytotoxic potential of compounds in normal human cells.
(§4) After extensive washing with saline solution (Hank’s Buffer Saline Solution, BioConcept, Allschwil, Switzerland), quiescent PBMCs were resuspended (1.0 × 10^6 cells/mL) in RPMI-1640 medium supplemented with 10% FBS. To evaluate cytotoxicity in proliferating PBMCs cultures, cells were resuspended at a concentration of 5 × 10^5 cells/mL in a growth medium containing […] of PHA (Irvine Scientific, Santa Ana, CA, USA). The same cellular density was utilized for resting PBMC cultures, without the addition of PHA. The tested compounds were added at different concentrations, and after a 72 h incubation, cell viability was determined using the resazurin test as described above.

Series [7] relates to human peripheral blood mononuclear cells (PBMC), not stimulated with PHA. The series is described as follows: Cytotoxicity in resting PBMC (resazurin, 72 h). As to conditions: mean ± SEM. Format: cell-based.
Text: as §3, §4

In series [8] the test system is HT-29 cells. The series is described as follows: In vitro growth inhibition (resazurin, 72 h), HT-29. It is filed as cell-based. As to conditions: Homo sapiens, mean ± SE.
A further series deals with T1, human recombinant HDAC6 (Homo sapiens, UniProt Q9UBN7).
T1 construct: purchased BPS Bioscience 50056
T1 sequence (Q9UBN7 1-1215): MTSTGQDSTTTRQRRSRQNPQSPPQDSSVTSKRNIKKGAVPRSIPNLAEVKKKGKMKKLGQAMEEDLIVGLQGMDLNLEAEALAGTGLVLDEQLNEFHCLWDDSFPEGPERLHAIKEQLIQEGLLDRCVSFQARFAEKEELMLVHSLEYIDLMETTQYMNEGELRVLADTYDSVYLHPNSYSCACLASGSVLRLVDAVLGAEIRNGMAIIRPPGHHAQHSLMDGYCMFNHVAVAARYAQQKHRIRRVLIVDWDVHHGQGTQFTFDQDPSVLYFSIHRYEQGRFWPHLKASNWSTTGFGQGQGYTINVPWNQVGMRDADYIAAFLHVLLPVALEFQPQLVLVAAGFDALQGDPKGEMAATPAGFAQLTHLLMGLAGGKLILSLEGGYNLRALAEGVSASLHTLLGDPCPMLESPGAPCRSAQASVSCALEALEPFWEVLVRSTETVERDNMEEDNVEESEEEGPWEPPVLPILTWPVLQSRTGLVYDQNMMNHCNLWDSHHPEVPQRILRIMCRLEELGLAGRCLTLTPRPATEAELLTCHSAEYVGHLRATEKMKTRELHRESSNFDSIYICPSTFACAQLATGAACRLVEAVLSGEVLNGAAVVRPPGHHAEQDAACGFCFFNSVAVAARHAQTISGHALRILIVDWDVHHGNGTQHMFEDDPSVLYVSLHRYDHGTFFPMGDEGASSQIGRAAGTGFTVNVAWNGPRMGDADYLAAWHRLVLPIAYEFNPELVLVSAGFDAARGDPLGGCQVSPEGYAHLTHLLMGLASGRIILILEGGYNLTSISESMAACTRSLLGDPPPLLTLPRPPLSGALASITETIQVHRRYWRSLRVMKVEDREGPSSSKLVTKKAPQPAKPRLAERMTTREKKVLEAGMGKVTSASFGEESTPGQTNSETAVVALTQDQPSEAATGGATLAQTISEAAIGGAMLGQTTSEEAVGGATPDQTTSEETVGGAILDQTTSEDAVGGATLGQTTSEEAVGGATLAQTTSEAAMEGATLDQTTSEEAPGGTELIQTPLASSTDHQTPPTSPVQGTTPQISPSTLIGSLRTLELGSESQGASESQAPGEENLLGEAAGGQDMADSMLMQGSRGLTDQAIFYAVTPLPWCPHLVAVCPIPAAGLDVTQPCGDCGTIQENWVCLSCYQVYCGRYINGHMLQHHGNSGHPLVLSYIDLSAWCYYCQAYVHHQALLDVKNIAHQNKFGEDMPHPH
The series is described as follows: HDAC isoform inhibition, fluorogenic substrate, HDAC6. It is filed as biochemical. As to conditions: mean ± SE, read-out: IC50 (µM) hHDAC6. Here is the method: Further experiments were also carried out to evaluate the inhibitory activities of test compounds on selected HDAC isoforms. […] Following an incubation of 15 min at RT, fluorescence was measured in an EnSight multimodal plate reader (PerkinElmer, Boston, MA, USA) with an excitation wavelength of 360 nm and an emission wavelength of 450 nm.

The test system of a further series is MCF-7 cells. The series is described as follows: In vitro growth inhibition (resazurin, 72 h), MCF-7. Format: cell-based. As to conditions: Homo sapiens, MCF7, mean ± SE.
Series [9] deals with acetylated histone H3 (Ac-H3K9) in HT-29 cells. The series is described as follows: Western blot of acetylated histone H3 (Ac-H3K9) in HT-29 cells. It is filed as cell-based, human. The conditions noted are these: 10 µM, 6 h. Here is the method: HT-29 cells were treated with selected compounds for 6 h at 10 µM, lysed, and then processed as previously described.
Antibodies directed against total histone H3 and its acetylated form (Ac-H3K9) were purchased from Cell Signaling Technology, Danvers, Massachusetts, while anti-vinculin antibody was purchased from Santa Cruz Biotechnology. Membranes were visualized using ECL select (GE Healthcare), and images were acquired using the iBright FL1500 Imaging System (Thermo Fisher Scientific, Waltham, MA, USA). Anti-vinculin (1:25,000, Santa Cruz Biotechnology, Dallas, TX, USA) was used as loading controls.
In general terms: Immunoblotting shows a protein as a band on a membrane.

By IC50 is commonly meant the concentration needed to halve the response being measured. For `COc1ccc(/C=C\c2cc(OC)c(OC)c(OC)c2)cc1O` [CA-4, combretastatin A-4, reference compound], the “induction of apoptosis / cell death (annexin V/PI), in words” value (“induction of apoptosis / cell death” for short) with HT-29 cells [1] is “completely resistant”. For the same compound, the IC50 in the series with HeLa cells [2] was determined as 4.6 ± 0.1 nM; in the series on MDA-MB-231 cells, […]; in the series with bovine brain tubulin, […]. Further, in the series with HT-29 cells [3], the “Percentage of HT-29 cells in G1 phase” value worked out at 41.83%. The “Percentage of HT-29 cells in G2/M phase” value in the series on HT-29 cells [3] is listed as 27.38%. In the series on HT-29 cells [3], the “Percentage of HT-29 cells in S phase” value is recorded as 30.79%. The “cytotoxic effect (annexin V/PI), in words” value in the series with HeLa cells [4] is on record as “greatest cytotoxic effects at the lower dose tested”. Also, in [5], the “Colchicine Binding % Inhibition ± SD” value is on record as 98 ± 2%.

By GI50 is commonly meant the concentration at which growth is held to half of that of the control. As to `COc1cc2oc(C(=O)c3ccccc3)c(C)c2cc1/C=C/C(=O)NO` [Compound 6g, (E)-3-(2-Benzoyl-6-methoxy-3-methylbenzofuran-5-yl)-N-hydroxyacrylamide], the “induction of apoptosis / cell death” value with HT-29 cells [1] is given as “able to induce cell apoptosis”. The IC50 was 36.7 ± 0.91 nM in the series on A549 cells; 0.36 ± 0.01 nM in the series with HeLa cells [2]; 80.3 ± 1.31 nM in the series on HT-29 cells [8]; 10.2 ± 0.7 µM at human recombinant HDAC6; 23.9 ± 0.77 nM with MDA-MB-231 cells; 30 ± 0.7 nM with MCF-7 cells. In addition, the half-maximal inhibitory concentration (IC50) in the series on bovine brain tubulin was found to be 690 ± 100 nM. The GI50 in [6] was 0.15 ± 0.02 µM; in series [7], greater than 10 µM. In addition, the “Percentage of HT-29 cells in G1 phase” value in the series with HT-29 cells [3] was 34.91%. Further, the “Percentage of HT-29 cells in G2/M phase” value with HT-29 cells [3] worked out at 40.74%. Moreover, in the series on HT-29 cells [3], the “Percentage of HT-29 cells in S phase” value amounted to 24.35%. Also, the “cytotoxic effect (annexin V/PI), in words” value with HeLa cells [4] is “greatest cytotoxic effects at the lower dose tested”. For the same compound, the “Colchicine Binding % Inhibition ± SD” value in series [5] was 86 ± 5%.

Turning to `COc1cc2oc(C(=O)c3cc(OC)c(OC)c(OC)c3)cc2cc1/C=C/C(=O)NO` [Compound 6i, (E)-N-Hydroxy-3-(6-methoxy-2-(3,4,5-trimethoxybenzoyl)benzofuran-5-yl)acrylamide], the “induction of apoptosis / cell death” value with HT-29 cells [1] was “able to induce cell apoptosis”. Also, the concentration for half-maximal inhibition (IC50) is 304 ± 1.46 nM with A549 cells; 14.8 ± 0.32 nM in the series on HeLa cells [2]; 272 ± 2.03 nM in the series with HT-29 cells [8]; 5.16 ± 0.34 µM at human recombinant HDAC6; 93.7 ± 2.04 nM in the series with MDA-MB-231 cells; 69 ± 6 nM in the series on MCF-7 cells. In addition, the IC50 in the series on bovine brain tubulin came out at 1600 ± 300 nM. Moreover, the GI50 in series [6] was 2.32 ± 0.23 µM; in series [7], greater than 10 µM. In addition, the “acetylated histone H3 (Ac-H3K9) level, Western blot” value in series [9] is recorded as “significantly increased acetylated histone H3 (Ac-H3K9)”. In addition, the “Percentage of HT-29 cells in G1 phase” value in the series on HT-29 cells [3] turned out to be 4.13%. Moreover, the “Percentage of HT-29 cells in G2/M phase” value in the series with HT-29 cells [3] was determined as 91.07%. The “Percentage of HT-29 cells in S phase” value with HT-29 cells [3] is recorded as 4.79%. In addition, the “Colchicine Binding % Inhibition ± SD” value in [5] is 43 ± 4%.

(Values after article PMC11277476, “Synthesis and Biological Evaluation of Novel 2-Aroyl Benzofuran-Based Hydroxamic Acids as Antimicrotubule Agents” (International Journal of Molecular Sciences, 2024).)
